pIC50: −log10 of the molar value.
Key:
human recombinant HDAC1 = molecular target: T1, human recombinant HDAC1 (Homo sapiens, UniProt Q13547); test: HDAC1 enzyme activity inhibition assay (HDAC Fluorimetric Drug Discovery Kit); format: biochemical; conditions: 0.3 μg enzyme, 10 μM substrate, 30° C., 60 minutes
T1 construct: purchased Enzo Life Science BML-SE456
Procedure: In order to examine the HDAC6 selectivity of the compounds of formula I of the present invention by HDAC1 and HDAC6 enzymatic activity inhibition assays, an experiment was performed using a conventional substance as a control.
HDAC enzyme activity was measured using a HDAC Fluorimetric Drug Discovery Kit (BML-AK511, 516, Enzo Life Science). For the HDAC1 enzyme activity test, human recombinant HDAC1 (BML-SE456) was used as an enzyme source, and Fluor de Lys®-“SIRT1 (BNL-KI177) was used as a substrate. A 5-fold dilution of the compound was seeded into a 96-well plate, and then 0.3 μg of the enzyme and 10 μM of the substrate were added to each well of the plate and allowed to react at 30° C. for 60 minutes. Then, Fluor de Lys®-Developer II (BML-KI176) was added thereto and allowed to react for 30 minutes, after which the fluorescence value (Ex 360, Em 460) was measured using a multi-plate reader (Flexstation 3, Molecular Device). The HDAC6 enzyme was tested using human recombinant HDAC6 (382180) (Calbiochem) according to the same protocol as the HDAC1 enzyme activity test method. Based on the resulting values, each IC50 value was calculated using GraphPad Prism4.0 program.

human recombinant HDAC6 = molecular target: T2, human recombinant HDAC6 (Homo sapiens, UniProt Q9UBN7); test: HDAC6 enzyme activity inhibition assay (HDAC Fluorimetric Drug Discovery Kit); format: biochemical; conditions: for HDAC6 selectivity (fold): HDAC1 vs HDAC6; for pIC50: same protocol as the HDAC1 enzyme activity test
T2 construct: purchased Calbiochem 382180
T2 sequence (Q9UBN7 1-1215): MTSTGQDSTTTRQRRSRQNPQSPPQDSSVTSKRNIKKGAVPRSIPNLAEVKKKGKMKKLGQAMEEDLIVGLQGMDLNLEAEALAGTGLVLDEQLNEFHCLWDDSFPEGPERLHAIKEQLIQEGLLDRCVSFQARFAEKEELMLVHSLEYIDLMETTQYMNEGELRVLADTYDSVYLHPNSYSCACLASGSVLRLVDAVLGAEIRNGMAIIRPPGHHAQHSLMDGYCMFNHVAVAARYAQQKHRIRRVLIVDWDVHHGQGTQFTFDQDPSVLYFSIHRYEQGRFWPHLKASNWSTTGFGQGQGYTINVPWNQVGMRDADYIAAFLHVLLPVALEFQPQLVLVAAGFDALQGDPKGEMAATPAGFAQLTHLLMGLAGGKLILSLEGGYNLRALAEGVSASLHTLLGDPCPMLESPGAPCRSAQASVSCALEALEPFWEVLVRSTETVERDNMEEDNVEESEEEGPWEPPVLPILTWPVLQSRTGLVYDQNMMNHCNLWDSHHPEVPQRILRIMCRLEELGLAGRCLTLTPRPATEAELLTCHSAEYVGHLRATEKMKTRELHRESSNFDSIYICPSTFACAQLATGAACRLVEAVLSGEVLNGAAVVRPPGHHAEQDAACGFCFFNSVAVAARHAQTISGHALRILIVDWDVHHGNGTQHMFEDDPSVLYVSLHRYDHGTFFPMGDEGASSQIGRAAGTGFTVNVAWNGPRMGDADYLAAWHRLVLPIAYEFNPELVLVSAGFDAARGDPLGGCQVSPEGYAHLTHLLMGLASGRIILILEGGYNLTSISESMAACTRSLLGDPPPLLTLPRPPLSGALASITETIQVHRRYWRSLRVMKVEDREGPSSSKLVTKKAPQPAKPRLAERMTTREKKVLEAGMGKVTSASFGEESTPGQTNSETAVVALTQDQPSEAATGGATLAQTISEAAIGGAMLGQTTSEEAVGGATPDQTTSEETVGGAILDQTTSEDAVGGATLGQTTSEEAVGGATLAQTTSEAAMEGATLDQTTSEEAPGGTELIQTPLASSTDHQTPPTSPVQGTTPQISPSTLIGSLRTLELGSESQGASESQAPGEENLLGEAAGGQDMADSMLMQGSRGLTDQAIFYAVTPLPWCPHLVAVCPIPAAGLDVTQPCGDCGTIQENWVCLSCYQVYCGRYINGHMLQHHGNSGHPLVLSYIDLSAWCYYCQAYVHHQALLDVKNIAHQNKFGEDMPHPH
Summary of the method: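 Fluorescence (Ex 360, Em 460) after 30 min developer step; IC50 from dose-response. Reaction: 0.3 μg recombinant enzyme, 10 μM Fluor de Lys-SIRT1 substrate, 5-fold compound dilutions, 60 min at 30° C. Same protocol for both isoforms.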

T1 sequence (Q13547 whole entry): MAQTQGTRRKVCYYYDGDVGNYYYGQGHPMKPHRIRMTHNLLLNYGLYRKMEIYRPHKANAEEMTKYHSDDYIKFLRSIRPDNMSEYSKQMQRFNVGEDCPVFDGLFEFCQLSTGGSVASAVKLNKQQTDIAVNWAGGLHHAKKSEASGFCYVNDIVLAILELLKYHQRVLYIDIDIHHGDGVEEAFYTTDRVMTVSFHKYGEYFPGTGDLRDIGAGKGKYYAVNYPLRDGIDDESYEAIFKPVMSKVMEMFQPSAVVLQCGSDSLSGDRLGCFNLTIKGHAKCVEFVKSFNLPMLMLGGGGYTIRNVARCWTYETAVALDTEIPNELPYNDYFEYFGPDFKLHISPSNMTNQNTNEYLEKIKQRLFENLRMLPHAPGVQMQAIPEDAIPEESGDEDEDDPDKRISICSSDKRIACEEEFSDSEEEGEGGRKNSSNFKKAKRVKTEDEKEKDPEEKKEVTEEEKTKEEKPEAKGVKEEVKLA

Compound | pIC50 (human recombinant HDAC1) | HDAC6 selectivity (fold) (human recombinant HDAC6) | pIC50 (human recombinant HDAC6)
CS(=O)(=O)N(Cc1ccc(-c2nnc(C(F)(F)F)o2)cc1F)c1cccc(Br)c1 [Compound 11196, N-(3-bromophenyl)-N-(2-fluoro-4-(5-(trifluoromethyl)-1,3,4-oxadiazol-2-yl)benzyl)methanesulfonamide] | 4.54 | 441 | 7.19
CS(=O)(=O)N(Cc1ccc(-c2nnc(C(F)(F)F)o2)cn1)c1cccc(F)c1 [Compound 11216, N-(3-fluorophenyl)-N-((5-(5-(trifluoromethyl)-1,3,4-oxadiazol-2-yl)pyridin-2-yl)methyl)methanesulfonamide] | 4.55 | 368 | 7.12
CS(=O)(=O)N(Cc1ccc(-c2nnc(C(F)(F)F)o2)cc1F)c1ccc(C(F)(F)F)cc1 [Compound 11220, N-(2-fluoro-4-(5-(trifluoromethyl)-1,3,4-oxadiazol-2-yl)benzyl)-N-(4-(trifluoromethyl)phenyl)methanesulfonamide] | 4.58 | 845 | 7.51
CCS(=O)(=O)N(Cc1ccc(-c2nnc(C(F)(F)F)o2)cn1)c1ccccc1 [Compound 11430, N-phenyl-N-((5-(5-(trifluoromethyl)-1,3,4-oxadiazol-2-yl)pyridin-2-yl)methyl)ethanesulfonamide] | 4.65 | 529 | 7.38
O=S(=O)(C1CCOCC1)N(Cc1ccc(-c2nnc(C(F)(F)F)o2)cn1)c1ccccc1 [Compound 11431, N-phenyl-N-((5-(5-(trifluoromethyl)-1,3,4-oxadiazol-2-yl)pyridin-2-yl)methyl)tetrahydro-2H-pyran-4-sulfonamide] | 4.55 | 453 | 7.21
CN1CC(N2CCC(S(=O)(=O)N(Cc3ccc(-c4nnc(C(F)F)o4)cc3F)c3ccc(F)c(Cl)c3)CC2)C1 [Compound 11451, N-(3-chloro-4-fluorophenyl)-N-(4-(5-(difluoromethyl)-1,3,4-oxadiazol-2-yl)-2-fluorobenzyl)-1-(1-methylazetidin-3-yl)piperidine-4-sulfonamide] | 4.57 | 3018 | 8.05
O=C(CO)N1CC(N2CCC(S(=O)(=O)N(Cc3ccc(-c4nnc(C(F)F)o4)cc3F)c3ccc(F)c(Cl)c3)CC2)C1 [Compound 11452, N-(3-chloro-4-fluorophenyl)-N-(4-(5-(difluoromethyl)-1,3,4-oxadiazol-2-yl)-2-fluorobenzyl)-1-(1-(2-hydroxyacetyl)azetidin-3-yl)piperidine-4-sulfonamide] | 4.56 | 3439 | 8.10
CCS(=O)(=O)N(Cc1ccc(-c2nnc(C(F)F)o2)cn1)c1ccc(C)c(F)c1 [Compound 11460, N-((5-(5-(difluoromethyl)-1,3,4-oxadiazol-2-yl)pyridin-2-yl)methyl)-N-(3-fluoro-4-methylphenyl)ethanesulfonamide] | 4.56 | 2727 | 8.00
CCS(=O)(=O)N(Cc1ccc(-c2nnc(C(F)F)o2)cn1)c1ccc(F)c(C)c1 [Compound 11461, N-((5-(5-(difluoromethyl)-1,3,4-oxadiazol-2-yl)pyridin-2-yl)methyl)-N-(4-fluoro-3-methylphenyl)ethanesulfonamide] | 4.56 | 2769 | 8.00
CCS(=O)(=O)N(Cc1ccc(-c2nnc(C(F)F)o2)cn1)c1cc(F)cc(F)c1 [Compound 11463, N-((5-(5-(difluoromethyl)-1,3,4-oxadiazol-2-yl)pyridin-2-yl)methyl)-N-(3,5-difluorophenyl)ethanesulfonamide] | 4.65 | 2789 | 8.10
O=S(=O)(C1CCN(C2COC2)CC1)N(Cc1ccc(-c2nnc(C(F)F)o2)cn1)c1ccc(F)c(Cl)c1 [Compound 11501, N-(3-chloro-4-fluorophenyl)-N-((5-(5-(difluoromethyl)-1,3,4-oxadiazol-2-yl)pyridin-2-yl)methyl)-1-(oxetan-3-yl)piperidine-4-sulfonamide] | 4.25 | 3779 | 7.82

Second part, the compound after the results:

pIC50 (human recombinant HDAC1) | HDAC6 selectivity (fold) (human recombinant HDAC6) | pIC50 (human recombinant HDAC6) | Compound
4.71 | 151 | 6.89 | CS(=O)(=O)N(Cc1ccc(-c2nnc(C(F)(F)F)o2)cc1F)c1cccc(Cl)c1 [Compound 11190, N-(3-chlorophenyl)-N-(2-fluoro-4-(5-(trifluoromethyl)-1,3,4-oxadiazol-2-yl)benzyl)methanesulfonamide]
5.15 | 108 | 7.19 | COc1ccc(N(Cc2ccc(-c3nnc(C(F)(F)F)o3)cc2F)S(C)(=O)=O)cc1 [Compound 11192, N-(2-fluoro-4-(5-(trifluoromethyl)-1,3,4-oxadiazol-2-yl)benzyl)-N-(4-methoxyphenyl)methanesulfonamide]
4.94 | 297 | 7.41 | CS(=O)(=O)N(Cc1ccc(-c2nnc(C(F)(F)F)o2)cc1F)c1ccc2c(c1)OCO2 [Compound 11226, N-(benzo[d][1,3]dioxol-5-yl)-N-(2-fluoro-4-(5-(trifluoromethyl)-1,3,4-oxadiazol-2-yl)benzyl)methanesulfonamide]
4.73 | 288 | 7.19 | CCS(=O)(=O)N(Cc1ccc(-c2nnc(C(F)(F)F)o2)cn1)c1ccc(F)c(Cl)c1 [Compound 11429, N-(3-chloro-4-fluorophenyl)-N-((5-(5-(trifluoromethyl)-1,3,4-oxadiazol-2-yl)pyridin-2-yl)methyl)ethanesulfonamide]
4.78 | 271 | 7.21 | CS(=O)(=O)N(Cc1ccc(-c2nnc(C(F)(F)F)o2)cn1)c1ccc(F)c(Cl)c1 [Compound 11432, N-(3-chloro-4-fluorophenyl)-N-((5-(5-(trifluoromethyl)-1,3,4-oxadiazol-2-yl)pyridin-2-yl)methyl)methanesulfonamide]
4.68 | 2635 | 8.10 | CCS(=O)(=O)N(Cc1ccc(-c2nnc(C(F)F)o2)cn1)c1ccc(F)c(F)c1 [Compound 11462, N-((5-(5-(difluoromethyl)-1,3,4-oxadiazol-2-yl)pyridin-2-yl)methyl)-N-(3,4-difluorophenyl)ethanesulfonamide]
4.66 | 2727 | 8.10 | O=S1(=O)CCC(S(=O)(=O)N(Cc2ccc(-c3nnc(C(F)F)o3)cn2)c2ccc(F)c(Cl)c2)CC1 [Compound 11497, N-(3-chloro-4-fluorophenyl)-N-((5-(5-(difluoromethyl)-1,3,4-oxadiazol-2-yl)pyridin-2-yl)methyl)tetrahydro-2H-thiopyran-4-sulfonamide 1,1-dioxide]

Source: US10538498B2, “1,3,4-oxadiazole sulfonamide derivative compounds as histone deacetylase 6 inhibitor, and the pharmaceutical composition comprising the same” (Chong Kun Dang Pharmaceutical Corp., priority 2015, dated 2020)
